Where two headings read alike, the source gives them in different places.
What was measured:
A549 = A549 wound healing inhibition (HGF dependent migration); assay type: cell-based; details: Homo sapiens, A549 cells, read-out: A549 WOUND HEALING INHIB IC50
From the text: (§1) HGF has well known activity in terms of inducing scattering and migration (wound healing) (Wells et al., Cell Motil Cytoskeleton. 2005 November 62(3):180-94; Miura et al., Urology 2001 December 58(6):1064-9; Nishimura et al., Int J Urol. 1998 May 5(3):276-81; Wang et al., Mol Cancer Ther. 2003 November; 2(11):1085-92; and Christensen et al., Cancer Res. 2003 Nov. 1; 63(21):7345-55).

[1] = biological target: T1, recombinant human c-Met/HGF receptor (Homo sapiens, UniProt P08581); assay: In vitro receptor tyrosine kinase assay (DELFIA), c-Met/HGF receptor; assay type: biochemical
T1 construct: His tag (pBlueBacHis2A vector); made in house; host or cells: Hi-5 cells (Trichoplusia ni), baculovirus
Protocol: Cell pellets were frozen at −80° C. until purification was performed.
(§2) The coated plates were washed and stored at 4° C. […] After incubation, the kinase reactions were quenched with EDTA and the plates were washed.

DU145 = DU145 scattering inhibition (HGF dependent scattering); assay type: cell-based; details: Homo sapiens
From the text: as §1

VEGF receptor KDR = biological target: T2, VEGF receptor KDR (Homo sapiens, UniProt P35968); assay: In vitro receptor tyrosine kinase assay (DELFIA), VEGF receptor KDR; assay type: biochemical
T2 construct: made in house; host or cells: Sf9 cells (Spodoptera frugiperda), baculovirus
Protocol: In the case of VEGF receptor KDR a 1.6-kb cDNA corresponding to the catalytic domain of VEGFR2 or KDR (Genbank accession number AF035121 amino acid 806 to 1356) was cloned into the Pst I site of the pDEST20 Gateway vector (Invitrogen) for the production of a GST-tagged version of that enzyme.
The GST-VEGFR2806-1356 protein was expressed in […] (Spodoptera frugiperda) upon infection with recombinant baculovirus construct. […] Cell pellets were frozen at −80° C. until purification was performed.
The supernatant (cell extract) was used as starting material for purification of GST-VEGFR2806-1356.
The supernatant was loaded onto a GST-agarose column (Sigma) equilibrated with PBS pH 7.3. Following a four column volume (CV) wash with PBS pH 7.3+1% Triton X-100 and 4 CV wash with buffer B (50 mM Tris pH 8.0, 20% glycerol and 100 mM NaCl), bound proteins were step eluted with 5 CV of buffer B supplemented with 5 mM DTT and 15 mM glutathion. GST-VEGFR2806-1356 enriched fractions from this chromatography step were pooled based on U.V. trace i.e. fractions with high O.D.280. Final GST-VEGFR2806-1356 protein preparations concentrations were about 0.7 mg/ml with purity approximating 70%.
as §2

[2] = DU-145, HGF dependent scattering, DU145 cells, read-out: DU145 SCATTERING INHIB IC50
[3] = DU-145, read-out: DU145 […] IC50
[4] = recombinant c-Met IC, 10 uM ATP, DELFIA, read-out: C-Met (IC50)
[5] = GST-VEGFR2 806-1356, 0.6 uM ATP, DELFIA, read-out: VEGFR (IC50)

T1 sequence (P08581 1078-1337): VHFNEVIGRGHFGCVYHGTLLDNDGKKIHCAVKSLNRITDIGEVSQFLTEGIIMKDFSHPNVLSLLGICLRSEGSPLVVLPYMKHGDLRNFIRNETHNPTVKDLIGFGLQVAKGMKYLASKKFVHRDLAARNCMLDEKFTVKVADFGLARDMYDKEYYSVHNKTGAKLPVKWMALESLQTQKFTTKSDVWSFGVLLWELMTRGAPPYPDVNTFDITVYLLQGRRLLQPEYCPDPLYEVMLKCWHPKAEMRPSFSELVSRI
T2 sequence (P35968 806-1356): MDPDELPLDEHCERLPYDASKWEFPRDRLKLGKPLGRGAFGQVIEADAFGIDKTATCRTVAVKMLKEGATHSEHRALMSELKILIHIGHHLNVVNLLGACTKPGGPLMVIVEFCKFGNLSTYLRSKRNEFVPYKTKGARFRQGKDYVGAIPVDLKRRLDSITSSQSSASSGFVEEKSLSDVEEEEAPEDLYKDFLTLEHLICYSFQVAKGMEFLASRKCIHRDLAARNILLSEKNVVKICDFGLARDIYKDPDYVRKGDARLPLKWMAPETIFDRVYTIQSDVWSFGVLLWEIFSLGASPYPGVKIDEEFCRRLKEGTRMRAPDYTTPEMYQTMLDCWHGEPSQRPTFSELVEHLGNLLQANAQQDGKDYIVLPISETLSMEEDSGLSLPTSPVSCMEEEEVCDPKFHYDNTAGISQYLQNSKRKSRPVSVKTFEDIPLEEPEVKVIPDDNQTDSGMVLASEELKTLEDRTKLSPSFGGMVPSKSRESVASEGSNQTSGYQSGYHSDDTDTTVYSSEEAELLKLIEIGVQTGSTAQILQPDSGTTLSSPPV

SMILES	IC50 (A549) [nM]	IC50 ([1]; read-out: CMET IC50) [nM]	IC50 (DU145; [2]) [nM]	IC50 (VEGF receptor KDR; read-out: VEGFR IC50) [nM]	IC50 (DU145; [3]) [nM]	IC50 [1, 4] [nM]	IC50 (VEGF receptor KDR; [5]) [nM]	IC50 [1] [nM]
Cn1ccnc1-c1cc2nccc(Oc3ccc(NC(=O)CC(=O)OC4CCNCC4)cc3F)c2s1	> 10000	> 500	> 10000	> 500				
Cn1cncc1-c1cc2nccc(Oc3ccc(NC(=O)CC(=O)Nc4ccccc4O)cc3F)c2s1	> 10000	50 to 250	1000 to 5000	< 50				
COc1ccccc1NC(=O)CC(=O)Nc1ccc(Oc2ccnc3cc(C4=CCCN(C)C4)sc23)c(F)c1	1000 to 5000	50 to 250	1000 to 5000	250 to 500				
COCn1cnc(-c2cc3nccc(Oc4ccc(NC(=O)CC(=O)Nc5ccccc5OC)cc4F)c3s2)c1	1000 to 5000	50 to 250	< 1000	< 50				
COc1ccccc1NC(=O)CC(=O)Nc1ccc(Oc2ccnc3cc(-c4c[nH]cn4)sc23)c(F)c1	< 1000	50 to 250	< 1000	50 to 250				
CCn1cnc(-c2cc3nccc(Oc4ccc(NC(=O)CC(=O)Nc5ccccc5O)cc4F)c3s2)c1	1000 to 5000	< 50	1000 to 5000	< 50				
COc1ccccc1NC(=O)CC(=O)Nc1ccc(Oc2ccnc3cc(N4CCCC4=O)sc23)c(F)c1	< 1000	50 to 250	< 1000	50 to 250				
CCCn1cnc(-c2cc3nccc(Oc4ccc(NC(=O)CC(=O)Nc5ccc(F)cc5)cc4F)c3s2)c1	< 1000	< 50	< 1000	< 50				
COCCn1cnc(-c2cc3nccc(Oc4ccc(NC(=O)CC(=O)Nc5ccccc5)cc4F)c3s2)c1	< 1000	< 50	< 1000	< 50				
Cn1cnc(-c2cc3nccc(Oc4ccc(NC(=O)C5(C(=O)Nc6ccccc6)CC5)cc4F)c3s2)c1	< 1000	< 50	< 1000	< 50				
CCn1cnc(-c2cc3nccc(Oc4ccc(NC(=O)CC(=O)NC5CCCCC5)cc4F)c3s2)c1	< 1000	50 to 250	< 1000	< 50				
COc1ccccc1NC(=O)CC(=O)Nc1ccc(Oc2ccnc3cc(-c4cn(CCN(C)C)cn4)sc23)c(F)c1	< 1000	50 to 250	< 1000	< 50				
CCCn1cnc(-c2cc3nccc(Oc4ccc(NC(=O)CC(=O)Nc5cccc(F)c5)cc4F)c3s2)c1	1000 to 5000	50 to 250	< 1000	< 50				
Cn1cnc(-c2cc3nccc(Oc4ccc(NC(=O)C5(C(=O)Nc6ccc(F)cc6)CC5)cc4F)c3s2)c1	< 1000	< 50	< 1000	< 50				
COc1ccccc1NC(=O)CC(=O)Nc1ccc(Oc2ccnc3cc(C(=O)NN(C)C)sc23)c(F)c1	1000 to 5000	250 to 500	1000 to 5000	> 500				
CN(C)NC(=O)c1cc2nccc(Oc3ccc(NC(=O)CC(=O)N(C)c4ccccc4)cc3F)c2s1	> 10000	250 to 500	> 10000	> 500				
CN(C(=O)CC(=O)Nc1ccc(Oc2ccnc3cc(-c4cn(C)cn4)sc23)c(F)c1)c1ccccc1	< 1000	50 to 250	< 1000	< 50				
CCn1cc(-c2cc3nccc(Oc4ccc(NC(=O)CC(=O)Nc5ccccc5OC)cc4F)c3s2)nc1C	< 1000	50 to 250	< 1000	< 50				

SMILES	IC50 (A549) [nM]	IC50 ([1]; read-out: CMET IC50) [nM]	IC50 (DU145; [2]) [nM]	IC50 (VEGF receptor KDR; read-out: VEGFR IC50) [nM]	IC50 (DU145; [3]) [nM]	IC50 [1, 4] [nM]	IC50 (VEGF receptor KDR; [5]) [nM]	IC50 [1] [nM]
O=C(CC(=O)Nc1ccc(Oc2ccnc3cc(-c4cn(CCO)cn4)sc23)c(F)c1)Nc1ccccc1	< 1000	< 50	< 1000	< 50				
Cn1cnc(-c2cc3nccc(Oc4ccc(NC(=O)C5(C(=O)Nc6ccccc6F)CC5)cc4F)c3s2)c1	1000 to 5000	< 50	< 1000	< 50				
COc1ccc(NC(=O)C2(C(=O)Nc3ccc(Oc4ccnc5cc(-c6cn(C)cn6)sc45)c(F)c3)CC2)cc1	1000 to 5000	50 to 250	1000 to 5000	< 50				
Cn1cnc(-c2cc3nccc(Oc4ccc(NC(=O)N5CCN(c6ccccc6)C5=O)cc4F)c3s2)c1	< 1000			< 50	< 1000			
CN(c1ccc(NC(=O)C2(C(=O)Nc3ccccc3)CC2)cc1F)c1ccnc2cc(-c3cn(C)cn3)sc12	1000 to 5000	50 to 250	< 1000					
Cn1cnc(-c2cc3nccc(Oc4ccc(NC(=O)CC(Nc5ccccc5)C(F)(F)F)cc4F)c3s2)c1 (stereo not drawn)	1000 to 5000			50 to 250	1000 to 5000			
Cn1cnc(-c2cc3nccc(Oc4ccc(NC(CC(=O)Nc5ccccc5)C(F)(F)F)cc4F)c3s2)c1 (stereo not drawn)	1000 to 5000			< 50	1000 to 5000			
O=C(CC(=O)Nc1ccc(Oc2ccnc3ccsc23)c(F)c1)Nc1ccccc1 [Compound 5a, N^1-(3-Fluoro-4-(thieno[3,2-b]pyridin-7-yloxy)phenyl)-N^3-phenylmalonamide]						270	199	
CCn1cnc(-c2cc3nccc(Oc4ccc(NC(=O)CC(=O)Nc5ccccc5)cc4F)c3s2)c1 [Compound 5d, N^1-(4-(2-(1-Ethyl-1H-imidazol-4-yl)thieno[3,2-b]pyridin-7-yloxy)-3-fluorophenyl)-N^3-phenylmalonamide]							5	19
CN(C)[C@@H]1CCN(C(=O)c2cc3nccc(Oc4ccc(NC(=O)CC(=O)Nc5ccccc5)cc4F)c3s2)C1 [Compound 5g, (R)—N^1-(4-(2-(3-(Dimethylamino)pyrrolidine-1-carbonyl)thieno[3,2-b]pyridin-7-yloxy)-3-fluorophenyl)-N^3-phenylmalonamide]						65	89	
CCn1cnc(-c2cc3nccc(Oc4ccc(NC(=O)CC(=O)Nc5ccccc5OC)cc4F)c3s2)c1 [Compound 28b, N^1-(4-(2-(1-Ethyl-1H-imidazol-4-yl)thieno[3,2-b]pyridin-7-yloxy)-3-fluorophenyl)-N^3-(2-methoxyphenyl)malonamide]						25	3	
CCn1cnc(-c2cc3nccc(Oc4ccc(NC(=O)CC(=O)Nc5ccccc5F)cc4F)c3s2)c1 [Compound 30b, N^1-(4-(2-(1-Ethyl-1H-imidazol-4-yl)thieno[3,2-b]pyridin-7-yloxy)-3-fluorophenyl)-N^3-(2-fluorophenyl)malonamide]						24		
CC(C(=O)Nc1ccccc1)C(=O)Nc1ccc(Oc2ccnc3cc(-c4nccn4C)sc23)c(F)c1 (stereo not drawn) [Compound 38, N^1-(3-Fluoro-4-(2-(1-methyl-1H-imidazol-2-yl)thieno[3,2-b]pyridin-7-yloxy)phenyl)-2-methyl-N^3-phenylmalonamide]						77	5	
Cn1cncc1-c1cc2nccc(Oc3ccc(NC(=O)CC(=O)Nc4cccnc4)cc3F)c2s1 [Compound 41, N-{3-Fluoro-4-[2-(3-methyl-3H-imidazol-4-yl)-thieno[3,2-b]pyridin-7-yloxy]-phenyl}-N′-pyridin-3-yl-malonamide]						132	24	
Cn1ccnc1-c1cc2nccc(Oc3ccc(NC(=O)CC(=O)Oc4ccccc4)cc3F)c2s1 [Compound 47, N-{3-Fluoro-4-[2-(1-methyl-1H-imidazol-2-yl)-thieno[3,2-b]pyridin-7-yloxy]-phenyl}-malonamic acid phenyl ester]						173	14	
COc1ccccc1NC(=O)CC(=O)Nc1ccc(Oc2ccnc3cc(-c4ccc(CN5CCCC5)cc4)sc23)c(F)c1 [Compound 48, N^1-(3-Fluoro-4-(2-(4-(pyrrolidin-1-ylmethyl)phenyl)-thieno[3,2-b]pyridin-7-yloxy)phenyl)-N^3-(2-methoxyphenyl)malonamide]						60	13	
O=C(CC(=O)Nc1ccc(Oc2ccnc3cc(C(=O)N4CCCC4)sc23)c(F)c1)Nc1ccccc1 [drawing 280]		< 50		< 50				
CCn1cnc(-c2cc3nccc(Oc4ccc(NC(=O)CC(=O)Nc5ccccc5)cc4F)c3s2)c1 [drawing 291]		< 50		50 to 250				

From US8329726B2, “Inhibitors of VEGF receptor and HGF receptor signaling” (MethylGene Inc., priority 2005, dated 2012)
